US20130202629A1, “USES OF PHOSPHOLIPID CONJUGATES OF SYNTHETIC TLR7 AGONISTS” (The Regents of the University of California, priority 2010, published 2013)
Several values for one entry are separate records, joined by “and”; a condition that tells them apart may be missing. Equal entries are not always repeated. Entries after “also recorded” stand apart in the source; their conditions may differ.

How the values were obtained:
[1] = target: T1, TLR7 (Mus musculus, UniProt P58681); assay: In vitro cytokine induction (TNF-alpha, IL-6, IL-12; ELISA) in murine macrophages: RAW264.7 cells and BMDM; assay type: cell-based; conditions: RAW264.7 and BMDM, 18 hours; b281 also in vivo
T1 construct: BMDM were prepared from C57BL/6 and TLR7 deficient mice; endogenous in cells; host or cells: RAW264.7 (ATCC); bone marrow derived macrophages from C57BL/6 mice
T1 sequence (P58681 27-1050): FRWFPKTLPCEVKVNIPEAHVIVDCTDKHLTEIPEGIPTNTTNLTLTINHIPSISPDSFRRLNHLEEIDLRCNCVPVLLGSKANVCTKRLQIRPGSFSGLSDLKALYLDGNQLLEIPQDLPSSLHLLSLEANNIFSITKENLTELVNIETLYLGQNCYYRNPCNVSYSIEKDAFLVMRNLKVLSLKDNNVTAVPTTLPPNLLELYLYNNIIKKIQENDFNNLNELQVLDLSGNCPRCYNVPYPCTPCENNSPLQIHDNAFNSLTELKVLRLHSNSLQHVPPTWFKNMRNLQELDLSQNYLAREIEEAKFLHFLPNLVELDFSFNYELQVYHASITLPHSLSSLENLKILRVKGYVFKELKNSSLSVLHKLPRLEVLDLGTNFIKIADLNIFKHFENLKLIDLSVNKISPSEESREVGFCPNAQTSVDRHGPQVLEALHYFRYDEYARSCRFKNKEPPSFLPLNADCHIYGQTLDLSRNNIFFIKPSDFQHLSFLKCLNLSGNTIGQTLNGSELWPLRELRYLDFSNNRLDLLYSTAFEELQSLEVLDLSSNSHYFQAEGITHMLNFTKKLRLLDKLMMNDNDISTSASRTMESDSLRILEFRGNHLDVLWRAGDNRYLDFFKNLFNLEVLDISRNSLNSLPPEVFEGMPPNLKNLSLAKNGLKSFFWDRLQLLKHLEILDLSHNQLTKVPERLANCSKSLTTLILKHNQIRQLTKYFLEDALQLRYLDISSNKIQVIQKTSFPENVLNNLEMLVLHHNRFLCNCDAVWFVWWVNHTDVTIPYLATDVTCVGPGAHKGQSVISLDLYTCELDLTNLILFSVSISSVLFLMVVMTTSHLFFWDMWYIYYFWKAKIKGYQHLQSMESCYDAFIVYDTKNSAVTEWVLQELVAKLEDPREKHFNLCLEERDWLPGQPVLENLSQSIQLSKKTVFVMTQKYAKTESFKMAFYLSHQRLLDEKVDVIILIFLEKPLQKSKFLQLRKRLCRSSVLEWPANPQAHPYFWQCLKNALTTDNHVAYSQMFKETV
Experimental: In vitro measurements of cytokine induction were performed using the mouse leukemic monocyte macrophage cell line, RAW264.7. […] BMDM were prepared from C57BL/6 and TLR7 deficient mice as described in Wu, C. C et al., “Immunotherapeutic activity of a conjugate of a Toll-like receptor 7 ligand”, Proc. Natl. Acad. Sci. USA, 104:3990 (2007).
In general, RAW264.7 cells or BMDM were incubated with various concentrations of conjugates for 18 hours at 37° C., 5% CO2 and culture supernatants were collected. The levels of cytokines (IL-6, IL-12 or TNF-α in the supernatants were determined by ELISA (BD Biosciences Pharmingen, La Jolla, Calif.) (Cho, H. J et al., “Immunostimulatory DNA-based vaccines induce cytotoxic lymphocyte activity by a T-helper cell-independent mechanism” [see comments], Nat. Biotechnol., 18:509 (2000)), and the results presented in FIGS. 2A-D. Data are mean±SEM of triplicates and are representative of three independent experiments. Minimum detection levels of these cytokines were 15 pg/mL.
TNFα levels were measured (see FIG. 2A) by incubating approximately 1×10^6/mL RAW 264.7 cells with the various conjugates or controls, as described above. IL-6 and IL-12 levels were measured (see FIGS. 2B-D) by incubating 0.5×10^6/mL BMDM with the various conjugates or controls, as described above. […]

[2] = target: T2, TLR7 (Homo sapiens, UniProt Q9NYK1); assay: Cytokine induction (IL-6, IFNalpha1; Luminex) in human PBMC; assay type: cell-based; conditions: 18 hours, IL-6 (FIG. 3A)
T2 sequence (Q9NYK1 27-1049): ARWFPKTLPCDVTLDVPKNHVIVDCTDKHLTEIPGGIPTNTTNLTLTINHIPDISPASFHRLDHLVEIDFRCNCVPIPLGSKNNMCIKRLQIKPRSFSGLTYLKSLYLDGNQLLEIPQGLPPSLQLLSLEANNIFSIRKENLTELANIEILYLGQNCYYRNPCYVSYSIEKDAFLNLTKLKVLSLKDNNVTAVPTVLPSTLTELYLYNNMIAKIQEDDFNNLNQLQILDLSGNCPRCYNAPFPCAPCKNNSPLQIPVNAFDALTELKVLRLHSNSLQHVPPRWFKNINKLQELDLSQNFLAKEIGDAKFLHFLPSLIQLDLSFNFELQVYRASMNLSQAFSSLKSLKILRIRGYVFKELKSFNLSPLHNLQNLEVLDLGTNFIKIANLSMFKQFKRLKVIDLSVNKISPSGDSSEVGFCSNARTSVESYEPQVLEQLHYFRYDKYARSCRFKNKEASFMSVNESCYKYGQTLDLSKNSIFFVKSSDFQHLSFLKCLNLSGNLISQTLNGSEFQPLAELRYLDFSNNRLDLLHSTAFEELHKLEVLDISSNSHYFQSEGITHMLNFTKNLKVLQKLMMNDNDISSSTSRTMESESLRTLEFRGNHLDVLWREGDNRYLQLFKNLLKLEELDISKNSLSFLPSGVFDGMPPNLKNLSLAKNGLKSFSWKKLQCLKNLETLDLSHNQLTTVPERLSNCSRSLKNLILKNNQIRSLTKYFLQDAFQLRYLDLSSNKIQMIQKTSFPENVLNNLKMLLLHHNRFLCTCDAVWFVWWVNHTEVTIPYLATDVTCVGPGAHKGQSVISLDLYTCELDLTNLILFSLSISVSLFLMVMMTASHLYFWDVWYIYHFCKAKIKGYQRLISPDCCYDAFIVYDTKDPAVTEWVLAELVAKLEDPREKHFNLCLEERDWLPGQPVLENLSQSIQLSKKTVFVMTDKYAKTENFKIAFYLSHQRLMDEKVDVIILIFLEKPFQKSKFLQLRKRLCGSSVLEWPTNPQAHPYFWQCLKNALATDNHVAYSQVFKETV

[3] = tested on: TLR7; assay: IL-12 and IL-6 induction in BMDM from wild type and TLR7 deficient mice; assay type: cell-based, mouse; conditions: BMDM from TLR7 deficient (TLR7-KO) mice
[4] = Solubility; assay type: physicochemical; conditions: aqueous solution / suitable solvents for testing
[5] = tested on: C57BL/6 mice; assay: In vivo kinetics of serum pro-inflammatory cytokine induction after intravenous injection; parameters: species or system mouse; conditions: i.v., 200 nmol per animal
Experimental: The mice were intravenously injected with TLR7 agonists and their conjugates (40 nmol compound (4a) or 200 nmol SM and compounds (6), (8), or (9) per mouse). Blood samples were collected 2, 4, 6, 24 or 48 hours after injections. Sera were separated and kept at −20° C. until use. The levels of cytokines (e.g. IL-6 and TNF-α in the sera were measured by Luminex bead microassay, and the results presented in FIGS. 4A-B. Data are mean±SEM of five mice and are representative of two independent experiments. The minimum detection levels of IL-6 and TNF-α are 5 pg/mL and 10 pg/mL, respectively.
Cytokine induction by compounds (4a), (6), and (9), were sustained for up to 6 hours.

[6] = tested on: mice; conditions: cited from earlier work

Row | order of TLR7 conjugate potency [2] | Structure (SMILES) | potency of cytokine induction compared to unconjugated TLR7 (SM), in words [1] | IL-12 and IL-6 induction in TLR7 deficient BMDM [3] | solubility, in words [4] | serum IL-6 induction [5] | serum TNFα induction ([5]; any point post injection) | anorexic effects and hypothermia in mice ([6]; mouse, in vivo) | minimum dose that induced the anorectic reaction ([6]; mucosal administration) | course of serum cytokine levels after injection, in words [5]
1 | (4b)>(6)>(9)>/=SM>(8) and 4b>6>9>SM=8 | COCCOc1nc(N)c2nc(O)n(Cc3ccc(C(=O)NCCOCCOCCOCCOCCOCCOCCOCCOCCOCCOCCn4cc(CCC(=O)O)nn4)cc3)c2n1 [Compound 8, 3-(1-(1-(4-((6-amino-8-hydroxy-2-(2-methoxyethoxy)-9H-purin-9-yl)methyl)phenyl)-1-oxo-5,8,11,14,17,20,23,26,29,32-decaoxa-2-azatetratriacontan-34-yl)-1H-1,2,3-triazol-4-yl)propanoic acid] | less potency compared to the unconjugated TLR7 (SM); also recorded: attenuated | little or no IL-12 and IL-6 | solubility improves dramatically | only a low level of IL-6 | no significant induction of TNFα |  |  | 
2 |  | COCCOc1nc(N)c2nc(O)n(Cc3ccccc3)c2n1 [SM, 9-benzyl-8-hydroxy-2-(2-methoxyethoxy) adenine, reference compound] |  | little or no IL-12 and IL-6 | insoluble in aqueous solution |  |  | can induce anorexic effects and hypothermia | 50 nmoles per mice | declined rapidly after 2 hours
